{"source": "patent US7431953B2", "about": "“Skin preparation for external use containing Purpuricenus temminckii frass as the active ingredient” (Nihon University, priority 2002, dated 2008)", "data": [{"tested_on": "rat-derived basophils (RBL-2H3)", "assay": "β-Hexosaminidase release-inhibition assay", "format": "cell-based", "conditions": "antigen (DNP-BSA)-stimulated RBL-2H3; FIG. 7, FIG. 8", "description": "The assay principle of the β-hexosaminidase release assay is as follows:\nβ-hexosaminidase is a glycolytic enzyme, and is one of the lysosome enzymes occurring abundantly in granules of mast cells.\nIn the β-hexosaminidase release assay, p-nitrophenyl phosphate is separated due to the presence of this enzyme. The separated p-nitrophenyl phosphate is determined by a photometric method (405 nm), and the result is set as the β-hexosaminidase enzyme activity.\nThe effect of inhibiting β-hexosaminidase release was evaluated using the anti-allergic effect test that uses as an index β-hexosaminidase released from the rat-derived basophils (RBL-2H3).\nRBL-2H3 cells were cultured (5% carbon dioxide, 37° C.) in an Eagle minimum essential medium containing 10% fetal calf serum (FCS), 100 units/mL penicillin and 100 μg/mL streptomycin. Then, the cells were plated to a 24-well flat-bottomed microplate for cell culture at 2.5×10^5 cells/well ([…] medium/well). By culturing for 24 hours (5% carbon dioxide, 37° C.), the cells were sensitized. The sensitized cells were then washed once in 500 μl of PBF, and 160 μl of the siraganian buffer containing 5.6 mM glucose, 1 mM calcium chloride and 0.1% BSA was added. A sample solution at each concentration and 20 μl of the test substance solution (DMSO: 0.1%) were added, and ten minutes later the antigen (DNP-BSA: 10 μg/mL) was added and incubated for 10 minutes to stimulate the cells. After stopping the reaction by cooling with ice for 10 minutes, 50 μl of the supernatant was transferred to a 96-well flat-bottomed microtiter plate, to which 100 μl of the enzyme reaction was added and mixed. After determining absorbance of the mixture by a microplate reader, the release ratio was determined by the following equation (measurement wavelength: 405 nm, reference wavelength: 655 nm). β-hexosaminidase release ratio (%)=[amount of β-hexosaminidase released by stimulation/amount of total intracellular β-hexosaminidase]×100\nTotal intracellular β-hexosaminidase was determined using the supernatant obtained by centrifuging the cells disrupted by an ultrasonic disruption instrument.", "values": [{"compound": "c1ccc2c(c1)[I+]c1ccccc1-2", "note": "[DPI, reference compound]", "Effect of inhibiting β-hexosaminidase release": "inhibited, in a concentration-dependent manner"}, {"compound": "CC[C@H](/C=C/[C@@H](C)[C@H]1CCC2[C@@H]3CCC4=CC(=O)CC[C@]4(C)C3CC[C@@]21C)C(C)C", "note": "(stereo partly shown) [stigmasta-4,22-dien-3-one]", "Effect of inhibiting β-hexosaminidase release": "roughly confirmed"}, {"compound": "CC[C@H](CC[C@@H](C)[C@H]1CCC2[C@@H]3CCC4=CC(=O)CC[C@]4(C)C3CC[C@@]21C)C(C)C", "note": "(stereo partly shown) [stigmast-4-en-3-one]", "Effect of inhibiting β-hexosaminidase release": "roughly confirmed"}, {"compound": "CC[C@H](CC[C@@H](C)[C@H]1CC[C@H]2[C@@H]3CC(=O)C4=CC(=O)CC[C@]4(C)[C@H]3CC[C@]12C)C(C)C", "note": "[stigmast-4-ene-3,6-dione]", "Effect of inhibiting β-hexosaminidase release": "roughly confirmed"}]}]}
